Assay results from US20230340012A1, “NATURAL AND SYNTHETIC COMPOUNDS FOR TREATING CANCER AND OTHER DISEASES” (PACIFIC ARROW LIMITED, priority 2009, published 2023).

Legend:
[1] = tested on: cancer cells; assay: Inhibition of cancer growth, cancer invasion, cell invasion or cancer cell invasion; type: cell-based
From the text: The program is based on our purification methods and biological assays including the MTT assay. See International Application No. PCT/US05/31900, filed Sep. 7, 2005, U.S. Serial No. 11/289,142, filed Nov. 28, 2005, and U.S. Serial No. 11/131551, filed May 17, 2005, and PCT/US2008/002086, 1188-ALA-PCT, filed Feb. 15, 2008, 12/344,682, 1020-B1-US, filed Dec. 29, 2008. The details of Analysis of gene expression of ES2 cells after Y-treatment by Microarray, Data Analysis Methods and Western blot in PCT/US2008/002086, 1188-ALA-PCT, filed Feb. 15, 2008, and the cell invasion experiments methods in International Application PCT/US2010/0042240, filed Jul. 16, 2010.

[2] = tested on: ANGPT2, DDIT3, LIF and NFKB1Z; conditions: Real-time PCR; results in Table 19-21 of PCT/US09/34115; cited from earlier work
[3] = tested on: Erythrocytes (RBC); assay: The haemolytic assay; conditions: in words, no concentration given
[4] = tested on: U2OS; assay: MTT assay, bone (U2OS); type: cell-based, human
Protocol: (§1) Cells. HTB-9 (bladder), HeLa-S3 (cervix), DU145 (prostate), H460 (lung), MCF-7 (breast), K562 (leukemia), HCT116 (colon), HepG2 (liver), U2OS (bone), T98G (brain), SK-MEL-5 (Skin) and OVCAR 3, ES2 (ovary), Pancreas (Capan), Mouth (KB), Kidney(A498).
(§2) MTT Assay. The procedure for MTT assay followed the method described by Carmichael et al. (1987) with modifications. The cells were seeded into a 96-well plate at for 24 hours before drug-treatment. The cells were then exposed to the drugs for 48, 72, or 96 hours. After the drug-treatment, MTT (0.5 mg/mL) was added to cultures and incubated for an hour. The formazan (product of the reduction of tetrazolium by viable cells) formed and was dissolved with DMSO and the O.D. at 490 nm, and was measured by an ELISA reader. The MTT level of the cells before drug-treatment was also measured (T0). The % cell-growth (%G) is calculated as: %G = (TD-T0 / TC-T0) x 100(1), where TC or TD represents O.D. readings of control or drug-treated cells. When T0 > TD, then the cytotoxicity (LC) expressed as % of the control is calculated as: %LC = (TD-T0 / T0) × 100(2).

[5] = tested on: H460; assay: MTT assay, lung (H460); type: cell-based, human; conditions: MTT
Protocol: as §1, §2
Methods: • A. Cells • -- H460 cells are derived from a Human Lung large cell carcinoma. Cells were grown in RPMI 1640 medium supplemented with 10% FCS, antibiotics and glutamine. 5000 cells were seeded in a well (96-welled plate) for one day before drug-treatment • B. Drug treatment: • -- Drug: Tig-S (stored as a 1000x stock solution in DMSO) was used. • -- Drug concentration used: from 0.15 - 20 ug/ml. • -- Drug-treatment was carried out for 1, 2 and 4 days. For the 4 days incubation, cells were fed with fresh medium (with drug) on day 2. • C. At the end of the drug-treatment, cytotoxic test was performed with MTT assay. Results: • 1. Tig-S inhibits H460 cells’ growth with the IC50 of drug 3 ug/ml. • 2. […] cells growth inhibition was observed beyond drug 5 ug/ml. • 3. No dead cell was found at drug concentration in 20 ug/ml.

[6] = tested on: HTB-9; assay: MTT assay, bladder (HTB-9); type: cell-based, human
Protocol: as §1, §2

[7] = tested on: HCT116; assay: MTT assay, colon (HCT116); type: cell-based, human
Protocol: as §1, §2

[8] = tested on: Capan; assay: MTT assay, pancreas (Capan); type: cell-based, human
Protocol: as §1, §2
• A. Cells: Capan cells are derived from Human pancreas carcinoma (pancreas). Cells were grown in RPMI 1640 medium supplemented with 10% FCS, antibiotics and glutamine. 10000 cells were seeded in a well (96-welled plate) for one day before drug-treatment • B. Drug treatment: • -- Drug: Tig-S (stored as a 1000x stock solution in DMSO) was used. • -- Drug concentration used: from 0.15 - 20 ug/ml. • -- Drug-treatment was carried out for 3 days. • C. At the end of the drug-treatment, cytotoxic test was performed with MTT assay. The percentage of drug-treated cells’ growth as compared to those of the no drug control is determined.

[9] = tested on: OVCAR3; assay: MTT assay, ovary (OVCAR3); type: cell-based, human; conditions: MTT
Protocol: as §1, §2

[10] = tested on: DU145; assay: MTT assay, prostate (DU145); type: cell-based, human
Protocol: as §1, §2

[11] = tested on: SK-Mel-5; assay: MTT assay, skin (SK-Mel-5); type: cell-based, human
Protocol: as §1, §2

[12] = tested on: A498; assay: MTT assay, kidney (A498); type: cell-based, human
Protocol: as §1, §2

[13] = tested on: MCF-7; assay: MTT assay, breast (MCF-7); type: cell-based, human
Protocol: as §1, §2

[14] = tested on: HepG2; assay: MTT assay, liver (HepG2); type: cell-based, human
Protocol: as §1, §2

[15] = tested on: T98G; assay: MTT assay, brain (T98G); type: cell-based, human
Protocol: as §1, §2

[16] = tested on: K562; assay: MTT assay, leukemia (K562); type: cell-based, human
Protocol: as §1, §2

[17] = tested on: HeLa; assay: MTT assay, cervix (HeLa); type: cell-based, human
Protocol: as §1, §2

[18] = tested on: ES2 cells; assay: Inhibition of cell adhesion, ES2; type: cell-based, human; conditions: for ES2 cells attached to flasks compared to no drug controls / unattached cells alive: 5 ug/ml; for ES2 cells attached to flasks compared to no drug controls: 5 hours; for unattached cells alive: trypan Blue exclusion; for unattached cells alive / cells attached to flasks: ES2 or Hey8A; for cells attached to flasks: 10 ug/ml
Protocol: (§3) Methods and Results. ES2 or Hey8A cells were plated in T25 flasks with medium containing 5 ug/ml of compounds selected from structure (2A) including E4A-Tig-R, E4A-Tig-V, E4A-Tig-S, E4A-Tig-N, E4A-Tig-Q, E4A-Tig-T. Cultures were incubated for 5 hours. Attached cells were removed from flasks by trypsinization and the numbers/amounts were counted. Compared to no drug controls, 80 ± 4% of ES2 cells and 60 ± 4% of Hey8A cells were found attached to flasks under this condition. At 5 ug/ml of above compounds, over 90% of unattached cells are alive as determined by the trypan Blue exclusion assay and by their ability to re-attach to flasks when plating in medium without tested compounds. However, with 10 ug/ml tested compounds, less than 40% of cells attached to flasks and many of them are dead cells.

[19] = tested on: Hey8A cells; assay: Inhibition of cell adhesion, Hey8A; type: cell-based; conditions: 5 ug/ml, 5 hours
Protocol: as §3

[20] = tested on: Fibronectin; assay: Fibronectin secretion experiment (Western blot); type: cell-based; conditions: bladder, cervix, prostate, lung, breast, leukemia, colon, liver, bone, brain, skin, ovary, pancreas, mouth, kidney cells; 24 hours
Protocol: Western blot is applied in this invention as a method to detect the specific proteins in treated and untreated cells with compounds in this invention, wherein the cells are bladder, cervix, prostate, lung, breast, leukemia, colon, liver, bone, brain, Skin, ovary, Pancreas(Capan), Mouth(KB), Kidney.
Cells: targeted cells were grown in RPMI 1640 medium. 1.5 million cells were seeded in a T25 flask and grown for 24 hours before drug-treatment.
Drug-treatment: Cells cultures were replaced with fresh RPMI medium containing either 2.5 ul of DMSO (as control) [D]; or 10, 20, 30, 40, 80 ug/ml of tested compounds.
After 24 hours, aliquot of culture medium was taken out for Fibronectin determination (Western blot method).
Cell viability at 24 hours was determined by MTT assay. Cultures were replaced with RPMI medium (5 ml) with MTT and incubated for an hour. The formation of formazan was dissolved in 10 ml of DMSO and OD at 570 nm was measured (MTT units). Western Blot: Spent culture medium was mixed with SDS sample buffer, boiled for 3 minutes before loading to SDS gel. Samples were applied to a 6-10% SDS gel and electrophoresis was conducted with 100 volts for 2 hours. Protein was transferred to a nitrocellulose membrane electrophoretically. The nitrocellulose blot was incubated with the first antibody and second antibody (AP conjugated, Promega S3721). The immuno-bands were developed with BCIP/NBT color development system.
Determination of Western blot band intensity: The band-images of Western blot were captured with a digital camera and the intensity of bands was determined using “Image J” software.

[21] = tested on: ES2; assay: MTT assay, ovary (ES2); type: cell-based, human; conditions: MTT
Protocol: as §1, §2
Method: A. Cells • -WI38 is a Normal Lung fibroblast. Cells were grown in MEM medium supplemented with 10% FCS, antibiotics and glutamine. 20 K cells were seeded per well (96-welled plate) for one day before drug-treatment • -ES2 is an Ovary Clear cells carcinoma. Cells were grown in RPMI-1640 medium supplemented with 10% FCS, antibiotics and glutamine. 10 K cells were seeded per well (96-welled plate) for one day before drug-treatment.
B. Drug treatment: • -Drug: Tig-S. stored as 1000x stock solution in DMSO. • -Drug concentration used: from 0.15 - 20 ug/ml. • -Drug-treatment was carried out for 2 days (ES2) or 6 days (WI38). For the 6 days incubation, cells were fed with fresh medium (with drug) on day 3 and 5.
C. At the end of the drug-treatment, cytotoxic test was performed with MTT assay.

[22] = tested on: KB; assay: MTT assay, mouth (KB); type: cell-based, human
Protocol: as §1, §2

SMILES	expression of the genes ANGPT2, DDIT3, LIF and NFKB1Z [2]	IC50 of bone (U2OS) [4]	IC50 of lung (H460) [5]	IC50 of bladder (HTB-9) [6]	IC50 of colon (HCT116) [7]	IC50 of pancreas (Capan) [8]	IC50 of ovary (OVCAR3) [9]	IC50 of prostate (DU145) [10]	IC50 of skin (SK-Mel-5) [11]	IC50 of kidney (A498) [12]	IC50 of breast (MCF-7) [13]	IC50 of liver (HepG2) [14]	IC50 of brain (T98G) [15]	IC50 of leukemia (K562) [16]	IC50 of cervix (HeLa) [17]	ES2 cells attached to flasks compared to no drug controls [18]	unattached cells alive [18]	cells attached to flasks [18]	Hey8A cells attached to flasks compared to no drug controls [19]	inhibition of fibronectin secretion [20]	further results
C/C=C(/C)C(=O)O[C@H]1[C@H](OC(=O)/C(C)=C\C)[C@@]2(CO)C(CC1(C)C)C1=CCC3[C@@]4(C)CC[C@H](O)C(C)(C)C4CC[C@@]3(C)[C@]1(C)[C@@H](O)[C@H]2O (stereo partly drawn) [ACH-Y3]	increase																				inhibiting cancer growth, cancer invasion, cell invasion or cancer cell invasion [1]: has the ability to inhibit; hemolytic activity [3]: less potent
C/C=C(/C)C(=O)O[C@H]1[C@H](OC(=O)/C(C)=C\C)[C@@]2(CO)C(CC1(C)C)C1=CCC3[C@@]4(C)CC[C@H](O[C@@H]5OC(C(=O)O)[C@@H](O)[C@@H](O[C@@H]6O[C@@H](CO)[C@@H](O)C6O)C5O[C@@H]5OC(CO)[C@H](O)[C@@H](O)C5O)C(C)(C)C4CC[C@@]3(C)[C@]1(C)[C@@H](O)[C@H]2O (stereo partly drawn) [Compound Y, 3-O-[β-D-galactopyranosyl (1→2)]-α-L-arabinofuranosy (1→3)-β-D-glucuronopyranosyl-21,22-O-diangeloyl-3β, 15α, 16α, 21β, 22α, 28-hexahydroxyolean-12-ene]	increase																				
CC=C(C)C(=O)OCC1(C)C(O)CCC2(C)C1CCC1(C)C2CC=C2C3CC(C)(C)C(O)C(OC(=O)C(C)=CC)C3(CO)C(O)CC21C (stereo not drawn) [Tig-Q]		20 µg/mL	18 µg/mL	10 µg/mL	22 µg/mL	9 µg/mL	23 µg/mL	15 µg/mL	20 µg/mL	13 µg/mL	18 µg/mL	24 µg/mL	29 µg/mL	6 µg/mL	20 µg/mL	80 ± 4%	over 90%	less than 40%	60 ± 4%	20-40%	anti-cancer activity [1]: have anti-cancer activities
CC=C(C)C(=O)OCC1(C)C(OC(=O)C(C)=CC)CCC2(C)C1CCC1(C)C2CC=C2C3CC(C)(C)C(OC(=O)C(C)=CC)C(O)C3(CO)C(O)CC21C (stereo not drawn) [Tig-U]		23 µg/mL	19 µg/mL	15 µg/mL	26 µg/mL	9 µg/mL	27 µg/mL	15 µg/mL	24 µg/mL	18 µg/mL	25 µg/mL	23 µg/mL	22 µg/mL	10 µg/mL	17 µg/mL						IC50 of ovary (ES2) [21]: 17 µg/mL; IC50 of mouth (KB) [22]: 16 µg/mL
CC=C(C)C(=O)OCC1(C)C(O)CCC2(C)C1CCC1(C)C2CC=C2C3CC(C)(C)C(OC(=O)C(C)=CC)C(O)C3(COC(=O)C(C)=CC)C(O)CC21C (stereo not drawn) [Tig-V]		7 µg/mL	6.8 µg/mL	4 µg/mL	8 µg/mL		9 µg/mL	4 µg/mL	6 µg/mL	4.8 µg/mL	9 µg/mL		14 µg/mL	4 µg/mL	7 µg/mL	80 ± 4%	over 90%	less than 40%	60 ± 4%	20-40%	IC50 of ovary (ES2) [21]: 2 µg/mL; IC50 of mouth (KB) [22]: 4.5 µg/mL; anti-cancer activity [1]: have anti-cancer activities
